From the NIST ThermoML archive (doi:10.1016/j.tca.2013.05.023)

Tests used:
[1] = molar heat capacity at constant pressure; xn = mol fraction of the nth substance listed; conditions: 101 kPa, Liquid, Small sample (50 mg) DSC, x1 = 0.3333
[2] = xn = mol fraction of the nth substance listed; conditions: 101 kPa, Liquid, Alternating current cell with electrodes, x1 = 0.3333

CCN(CC)CCO.Cl [2-(diethylamino)ethanol hydrochloride] + OCCO
Conditions	electrical conductivity, [2] [S/m]	molar heat capacity at constant pressure, [1] [J/K/mol]
298.15 K	0.47	–
303.15 K	0.565	68.03
308.15 K	0.68	68.43
313.15 K	0.81	68.83
318.15 K	0.96	69.33
323.15 K	1.12	69.83
328.15 K	1.29	70.36
333.15 K	1.48	71.03
338.15 K	1.68	71.53
343.15 K	1.88	72.09
348.15 K	–	72.69
353.15 K	–	73.26

CCN(CC)CCO.Cl [2-(diethylamino)ethanol hydrochloride] + OCC(O)CO
Conditions	electrical conductivity, [2] [S/m]	molar heat capacity at constant pressure, [1] [J/K/mol]
298.15 K	0.069	–
303.15 K	0.098	83.46
308.15 K	0.134	83.96
313.15 K	0.175	84.39
318.15 K	0.228	85.16
323.15 K	0.293	85.72
328.15 K	0.368	86.36
333.15 K	0.456	86.96
338.15 K	0.556	87.79
343.15 K	0.667	88.46
348.15 K	–	89.09
353.15 K	–	89.76
